Earlier results on 67 substances are cited in paper PMC11599114 (Viruses, 2024).

The term IC50 denotes the point on the concentration scale where inhibition reaches its midpoint. The EC50 is the midpoint of the concentration-response curve. The IC90 is the point of the concentration-response curve where the effect stands at 90%. As a reminder, the inhibition is the share of the control response that was lost under treatment.

Where two headings read alike, the source gives them in different places.

One series concerns INFVA. The arrangement: method as in AVPdb. As to conditions: ref AVPdb; for IC50: virus entry; for EC50: fusion.
Series [1] deals with human parainfluenza virus 3 (HPIV3). Also noted: method as in ref 16973588. As to conditions: HPIV3 infection, HeLa.
The test system is the same in series [2]. The arrangement: method as in ref 16973588. Particulars: HPIV3 fusion, HeLa.
For a further series, the system named is HCoV-OC43. As to conditions: HCoV-OC43, Vero.
For another series, the system named is HSV-2. Particulars: HSV-2, Vero.
The subject of the next series is HSV-1. Particulars: HSV-1, Vero.
Series [3] deals with SARS-CoV-2. Particulars: SARS-CoV-2, Vero.
In another series the test system is HCoV-229E. Particulars: Vero.
Series [4] relates to SARS-CoV-2. Also noted: method as in ref 34328726. As to conditions: for IC50: SARS-CoV-2 entry, HEK293T/ACE2.

For the substance AETVESCLAKPHTEN [AVP0967], in the series with INFVA, the IC50 was 66 µM.

As to AGDDQGLDKCVPNSKEK [AVP1195], in the series on INFVA, the EC50 was 3.7 ± 0.35 pM.

For AKIXQSLXFIXKSDXLLHNV [DRAVPe00631], the IC50/EC50 in the series with RSV (ref DRAVP) is 1.16 ± 0.08 µM.

For the substance AVASVPRARGKYWWG [AVP0965], the IC50 in the series with INFVA was 44 µM.

For “AVSKVLHLEGEVNKISALLSTNKAVVSLSNGVSVLTSKVLDLDNYIDKQLLPIVNK [AVP1971]”, in the series on RSV (fusion, ref AVPdb), the IC50/EC50 was 1.68 µM.

In the case of “DASISQVNEKINQSLAFIRKSDELLHNVNAGKSTT [AVP0142]”, in the series with RSV (fusion, ref AVPdb), the IC50/EC50 was 8 µM.

In the case of “DEFDASISQVNEKINQSLAFIRKSDELLHNVNAGK [AVP0139]”, the IC50/EC50 in the series on RSV (fusion, ref AVPdb) was 12 µM.

DFRRLPGAFWQLRQP [AVP0966]: in the series on INFVA, the IC50 is 52 µM.

Consider “DITLNNSVALDPIDISIELNKAKSDLEESKEWIRRSNQKLDSIGN [DRAVPe01310]”, for which the IC50 in series [1] and in series [2] was 0.5 µM in each case.

“DPLVFPSDEFDASISQVNEKINQSLAFIRKSDELL [AVP0132]”: the IC50/EC50 in the series on RSV (fusion, ref AVPdb) is 8 µM.

In the case of EAIXQSLXFIXKSDXLLHNV [DRAVPe00632], the IC50/EC50 with RSV (ref DRAVP) was 0.60 ± 0.02 µM.

Turning to “EFDASISQVNEKINQSLAFIRKSDELLHNVNAGKS [AVP0140]”, the IC50/EC50 in the series on RSV (fusion, ref AVPdb) is 13 µM.

For EKAXQSLXFIXKSDXLLHNV [DRAVPe00633], the IC50/EC50 with RSV (ref DRAVP) was 1.30 ± 0.89 µM.

Regarding EKIAQSLXFIRXSDXLLHXV [DRAVPe00629], the IC50/EC50 in the series with RSV (ref DRAVP) was 20.41 ± 2.4 µM.

For EKINQSLAFIRKSDELLHNV [DRAVPe00623], in the series on RSV (ref DRAVP), the IC50/EC50 was >50 µM.

EKINQSLXFIAXSDXLLHXV [DRAVPe00630]: in the series with RSV (ref DRAVP), the IC50/EC50 was 175 ± 0.00 µM.

For EKIXASLXFIXKSDXLLHNV [DRAVPe00634], in the series with RSV (ref DRAVP), the IC50/EC50 was 0.28 ± 0.43 µM.

On to EKIXQALXFIXKSDXLLHNV [DRAVPe00635], for which the IC50/EC50 with RSV (ref DRAVP) was 0.66 ± 0.26 µM.

With EKIXQSAXFIXKSDXLLHNV [DRAVPe00636], the IC50/EC50 with RSV (ref DRAVP) is 0.95 ± 0.53 µM.

Take EKIXQSLXAIXKSDXLLHNV [DRAVPe00637]: the IC50/EC50 in the series on RSV (ref DRAVP) is 1.39 ± 0.10 µM.

As for EKIXQSLXFAXKSDXLLHNV [DRAVPe00638], in the series with RSV (ref DRAVP), the IC50/EC50 was 10.44 ± 2.97 µM.

Turning to EKIXQSLXFIXASDXLLHNV [DRAVPe00639], the IC50/EC50 in the series on RSV (ref DRAVP) is 10.93 ± 13.90 µM.

As for EKIXQSLXFIXKADXLLHNV [DRAVPe00640], the IC50/EC50 with RSV (ref DRAVP) was 82.04 ± 1.56 µM.

On to EKIXQSLXFIXKSAXLLHNV [DRAVPe00641], for which, in the series on RSV (ref DRAVP), the IC50/EC50 is 1.10 ± 0.08 µM.

EKIXQSLXFIXKSDXALHNV [DRAVPe00642]: the IC50/EC50 in the series on RSV (ref DRAVP) is 0.88 ± 0.06 µM.

In the case of EKIXQSLXFIXKSDXLLANV [DRAVPe00643], the IC50/EC50 with RSV (ref DRAVP) is 0.52 ± 0.07 µM.

In the case of EKIXQSLXFIXKSDXLLHAV [DRAVPe00644], the IC50/EC50 in the series with RSV (ref DRAVP) is 2.71 ± 2.93 µM.

Consider EKIXQSLXFIXKSDXLLHNA [DRAVPe00645], for which the IC50/EC50 in the series with RSV (ref DRAVP) is 0.60 ± 0.03 µM.

Consider EXINXSLXFIRXSDALLHNV [DRAVPe00646], for which the IC50/EC50 in the series with RSV (ref DRAVP) is 1.00 ± 0.03 µM.

Consider EXINXSLXFIRXSDELLHNV [DRAVPe00626], for which the IC50/EC50 with RSV (ref DRAVP) was 0.59 ± 0.13 µM.

For the substance “FDASISQVNEKINQSLAFIRKSDELLHNVNAGKST [AVP0143]”, the IC50/EC50 in the series on RSV (fusion, ref AVPdb) is 0.051 µM.

Take FFVIFYRRKK [AVP1808]: the IC50 with INFVA was 1.48 µM.

With “FPSDEFDASISQVNEKINQSLAFIRKSDELLHNVN [AVP0136]”, the IC50/EC50 with RSV (fusion, ref AVPdb) was 8 µM.

For the substance FVPWFSKFlGRIL [DRAVPe00377], the IC90 with HCoV-OC43 was 15 µM; in the series with HSV-2, 16.7 µM; in the series on HSV-1, 18.7 µM; in the series on SARS-CoV-2 [3] it was 12.1 µM; with HCoV-229E, 30.1 µM.

As to FVPWFSKFlPRIL [DRAVPe00378], the IC90 with HCoV-OC43 was 24.1 µM; with HSV-2, 19.2 µM; with HSV-1, 18.8 µM; in the series with SARS-CoV-2 [3], 14 µM.

Regarding FVPWFSKFlWRIL [DRAVPe00385], the IC90 was 24.2 µM in the series on HCoV-OC43; 12.5 µM with HSV-2; 8.25 µM in the series with HSV-1; 27.7 µM with SARS-CoV-2 [3]; 50 µM in the series with HCoV-229E.

On to “FYDPLVFPSDEFDASISQVNEKINQSLAFIRKSDE [AVP0130]”, for which the IC50/EC50 in the series with RSV (fusion, ref AVPdb) was 20 µM.

As to GAWYKGRARPVSAVA [AVP0963], in the series on INFVA, the IC50 was 53 µM.

GWWYKGRARAVSAVA [AVP0964]: the IC50 in the series on INFVA is 89 µM.

Consider GWWYKGRARPVSAVA [AVP0961], for which the IC50 with INFVA was 3.2 µM.

For “IDISIELNKAKSDLEESKEWIRRSNQKLDSIGNWH [DRAVPe00930]”, the IC50 in series [1] was 0.5 µM; in [2] it was 1.5 µM.

“IINFYDPLVFPSDEFDASISQVNEKINQSLAFIRK [AVP0127]”: in the series with RSV (fusion, ref AVPdb), the IC50/EC50 was 91 µM.

As to “INFYDPLVFPSDEFDASISQVNEKINQSLAFIRKS [AVP0128]”, the IC50/EC50 with RSV (fusion, ref AVPdb) is 93 µM.

For IYALLENAEDYNLVN [DRAVPe01985], in the series on SARS-CoV-2 [4], the IC50 was 0.009 ± 0.004 µM. For the same substance, the inhibition with SARS-CoV-2 [4] (at 25 µM) was 100%.

Take “LVFPSDEFDASISQVNEKINQSLAFIRKSDELLHN [AVP0134]”: the IC50/EC50 with RSV (fusion, ref AVPdb) is 9 µM.

As for “NFYDPLVFPSDEFDASISQVNEKINQSLAFIRKSD [AVP0129]”, the IC50/EC50 with RSV (fusion, ref AVPdb) is >100 µM.

Turning to “NFYDPLVFPSDEFDASISQVNEKINQSLASIRKSDELLHNVNAGK [AVP1972]”, in the series on RSV (fusion, ref AVPdb), the IC50/EC50 was 2.93 µM.

For the substance NGESSADWAKN [AVP1196], the EC50 in the series on INFVA was 225 ± 1.16 pM.

With “PLVFPSDEFDASISQVNEKINQSLAFIRKSDELLH [AVP0133]”, the IC50/EC50 in the series with RSV (fusion, ref AVPdb) is 30 µM.

Turning to “PSDEFDASISQVNEKINQSLAFIRKSDELLHNVNA [AVP0137]”, in the series on RSV (fusion, ref AVPdb), the IC50/EC50 is 6 µM.

Take QDKHEEDYQMYNKGDKED [DRAVPe01982]: the IC50 with SARS-CoV-2 [4] was 0.018 ± 0.002 µM. Also, the inhibition in the series with SARS-CoV-2 [4] (at 0.39 µM) is 95%; in the series with SARS-CoV-2 [4] (at 25 µM) it was 100%.

On to RAVWRHSVATPSHSV [AVP0969], for which the IC50 in the series with INFVA is > 500 µM.

RRKKAAVALLPAVLLALLAP [AVP0554]: the IC50 with INFVA was 8 µM.

For the substance RRKKIFYFFR [AVP1759], the IC50 with INFVA was 0.155 µM.

For the substance RRKKWLVFFVIFYFFR [AVP1754], the IC50 in the series on INFVA was 4e-05 µM.

As for “SDEFDASISQVNEKINQSLAFIRKSDELLHNVNAG [AVP0138]”, the IC50/EC50 in the series on RSV (fusion, ref AVPdb) is 6 µM.

Regarding SKHSSLDCVLRP [AVP1194], the EC50 with INFVA was 4 ± 0.37 pM.

For the substance SRDKHEEHEKENDRGQ [DRAVPe01986], in the series with SARS-CoV-2 [4], the IC50 was 0.01 ± 0.005 µM. The inhibition with SARS-CoV-2 [4] (at 25 µM) is 100%.

With “VALDPIDISIELNKAKSDLEESKEWIRRSNQKLDSD [DRAVPe01313]”, the IC50 is 0.5 µM in [1] and 0.35 µM in [2].

Consider “VALDPIDISIELNKAKSDLEESKEWIRRSNQKLDSI [DRAVPe01311]”, for which the IC50 in series [1] and in series [2] was 0.5 µM throughout.

Consider “VANDPIDISIELNKAKSDLEESKEWIRRSNQKLDSI [DRAVPe01312]”, for which the IC50 in series [1] was 1.1 µM; in [2] it was 0.75 µM.

For “VFPSDEFDASISQVNEKINQSLAFIRKSDELLHNV [AVP0135]”, in the series with RSV (fusion, ref AVPdb), the IC50/EC50 is 19 µM.

Regarding WLVFFVIAYFAR [AVP1755], the IC50 with INFVA is 0.00087 µM.

As for WLVFFVIFYFFR [AVP1756], the IC50 in the series with INFVA was 0.0936 µM.

Regarding WLVFFVIFYFFRRRKK [AVP1753], in the series on INFVA, the IC50 was 3e-05 µM.

Take WLVFFVRRKK [AVP1806]: in the series on INFVA, the IC50 is 0.638 µM.

Regarding “YDPLVFPSDEFDASISQVNEKINQSLAFIRKSDEL [AVP0131]”, the IC50/EC50 in the series with RSV (fusion, ref AVPdb) is 6 µM.
